Measured values reported in patent publication US7491819B1 (priority 2004, dated 2009).

Tested on: HIV-1 303B
Test: microbe, parasite or virus in culture
Assay type: cell-based
Settings: for EC50: Human immunodeficiency virus 1, MT2, 120 h; for overall antiviral effect of the two-drug combination with Example 19 (in words): classification from combination indices and confidence intervals; for Combination Indices at 50% HIV Inhibition (Confidence Interval) / Combination Indices at 75% HIV Inhibition (Confidence Interval) / Combination Indices at 90% HIV Inhibition (Confidence Interval): in combination with Example 19, 95% CI in parenthesis
Experimental: Virus and cell lines. The T-cell line, MT-2, was obtained through the AIDS Research and Reference Reagent Program. MT-2 cells were sub-cultured twice a week in RPMI 1640 medium supplemented with 10% fetal bovine serum, 2 mM L-glutamine, and 10 mM HEPES buffer pH 7.5. The HIV-1303B virus is a molecular clone derived from the NL4-3 strain of HIV-1 that was obtained from the NIH AIDS Research and Reference Reagent Program. For combinations with enfuvirtide, the NL36G virus was used. […] Virus stocks were made by transfecting 293T cells with a proviral DNA clone using LipofectAMINE PLUS (Invitrogen), according to the manufacturer's instructions. Three days post-transfection, virus was harvested and passaged once in MT-2 cells before titration in MT-2 cells.
Chemicals. Example 19, atazanavir, didanosine, stavudine, efavirenz, and enfuvirtide (T-20) were synthesized by Bristol-Myers Squibb using published or known reactions. […] Tenofovir was tested as tenofovir disopoxil fumarate. Zidovudine and zalcitabine were purchased from Sigma, and emtricitabine from Moravek Biochemicals.
Drug Susceptibility and Cytotoxicity Assays. For drug susceptibility assays, MT-2 cells were infected with HIV-1 303B (or NL36G), at an MOI of 0.001, and seeded into 96-well microtiter plates (2.5×10^5 cells/ml) containing serial dilutions of test compounds. […] Each drug ratio consisted of an array of 3-fold serial dilutions, and was performed with eight or more replicas on separate multi-well plates. HIV infected cells were incubated at 37° C. in 5% CO2, and on day five post-infection, the extent of virus replication was measured by determining cell viability using the CellTiter 96 Aqueous Non-Radioactive Cell Proliferation Assay (Promega). […] Cytotoxicity assays were performed in parallel with the combination experiments. Here, uninfected cells were exposed to the same drug combinations, and assayed after five days for cell viability using the MTS assay.
Analysis of Drug Combination Effects. For determination of combination index (CI) values, drugs were diluted in a fixed ratio and multiple ratios were analyzed. The drug serial dilutions spanned a range of concentrations near the EC50 value of each compound, so that equivalent antiviral activities could be compared. The normalized responses from each therapy are fit to the four-parameter logistic model with a common minimum and maximum across all therapies. Conceptually, this equation can be written as
In this equation, Fa stands for “fraction affected,” and represents the fraction of the viral load that has been inactivated. […] The EC50, represented by the Ci in the above equation, is the drug concentration that is expected to reduce the amount of virus by 50%, and the Bi are the parameters that reflects the slope of the concentration-response curve. For this assay, A is the bottom plateau common to all curves, D is the common top plateau, Bj is the “slope” parameter for the jth therapy, and Cj is the concentration that produces an effect equal to the average of A and D for the jth therapy. Therapies 1 and 2 correspond to mono therapies 1 and 2, respectively. Therapies 3, 4, and 5 correspond to the three combination therapies. EC50 values for each drug were determined from the single drug experiments, using the above equation. The equation was fit using a nonlinear regression routine (Proc Nlin) in PC SAS version 8.2 (SAS Institute Inc.).
To assess antiviral effects of different drug combination treatments, combination indices (CIs) were calculated according to Chou and Rideout. The combination index was computed as
In this equation [Dm]1 and [Dm]2 are the concentrations of drugs that would individually produce a specific level of effect, while [D]1 and [D]2 are the concentrations of drugs in combination that would produce the same level of effect.
Theoretically, additivity is implied if the CI is equal to one, synergy if the CI is less than one, and antagonism if the CI is greater than one.

[1] = EC50 ratio Example 19:comparator 1:1
[2] = EC50 ratio Example 19:comparator 1:2.5
[3] = EC50 ratio Example 19:comparator 2.5:1

| Structure (SMILES) | EC50 [nM] | overall antiviral effect of the two-drug combination with Example 19 (in words) | Combination Indices at 50% HIV Inhibition (Confidence Interval) [1] | Combination Indices at 75% HIV Inhibition (Confidence Interval) [1] | Combination Indices at 90% HIV Inhibition (Confidence Interval) [1] | Combination Indices at 50% HIV Inhibition (Confidence Interval) [2] | Combination Indices at 75% HIV Inhibition (Confidence Interval) [2] | Combination Indices at 90% HIV Inhibition (Confidence Interval) [2] | Combination Indices at 50% HIV Inhibition (Confidence Interval) [3] | Combination Indices at 75% HIV Inhibition (Confidence Interval) [3] | Combination Indices at 90% HIV Inhibition (Confidence Interval) [3] | overall antiviral effect of the two-drug combination with Example 19 (in words) (listed as nevaripine) |
| --- | --- | --- | --- | --- | --- | --- | --- | --- | --- | --- | --- | --- |
| O=C1Nc2ccc(Cl)cc2[C@@](C#CC2CC2)(C(F)(F)F)O1 [Efavirenz, efavirenz] | 1.6 | synergism at most effective concentrations and molar ratios | 0.83 (0.75, 0.92) | 0.76 (0.64, 0.88) | 0.70 (0.54, 0.85) | 0.95 (0.86, 1.04) | 0.93 (0.85, 1.02) | 0.93 (0.79, 1.06) | 1.01 (0.92, 1.10) | 0.96 (0.83, 1.10) | 0.94 (0.73, 1.14) | – |
| Cc1cccc(C)c1OCC(=O)N[C@@H](Cc1ccccc1)[C@@H](O)C[C@H](Cc1ccccc1)NC(=O)[C@H](C(C)C)N1CCCNC1=O [Lopinavir, lopinavir] | 17 | additive relationship with Example 19 cannot be ruled out | 0.74 (0.67, 0.82) | 0.77 (0.66, 0.88) | – | 0.77 (0.66, 0.88) | 0.56 (0.36, 0.75) | 0.41 (0.19, 0.64) | 0.76 (0.69, 0.83) | 0.62 (0.55, 0.70) | 0.54 (0.47, 0.61) | – |
| Nc1nc(=O)n([C@@H]2CS[C@H](CO)O2)cc1F [Emtricitabine, emtricitabine] | 53 | synergistic | 0.31 (0.27, 0.36) | 0.23 (0.18, 0.28) | 0.18 (0.12, 0.24) | 0.31 (0.26, 0.37) | 0.23 (0.19, 0.29) | 0.17 (0.12, 0.28) | 0.33 (0.28, 0.38) | 0.25 (0.20, 0.30) | 0.19 (0.13, 0.25) | – |
| CC(C)(C)NC(=O)[C@@H]1C[C@@H]2CCCC[C@@H]2CN1C[C@@H](O)[C@H](Cc1ccccc1)NC(=O)[C@H](CC(N)=O)NC(=O)c1ccc2ccccc2n1 [Saquinavir, saquinavir] | 11 | confidence interval is below one at all concentrations and effective levels | 0.77 (0.70, 0.84) | 0.67 (0.58, 0.75) | 0.58 (0.47, 0.69) | 0.43 (0.38, 0.48) | 0.51 (0.42, 0.59) | 0.59 (0.44, 0.74) | 0.81 (0.72, 0.89) | 0.77 (0.66, 0.89) | 0.74 (0.57, 0.91) | – |
| COC(=O)N[C@H](C(=O)N[C@@H](Cc1ccccc1)[C@@H](O)CN(Cc1ccc(-c2ccccn2)cc1)NC(=O)[C@@H](NC(=O)OC)C(C)(C)C)C(C)(C)C [Atazanavir, atazanavir] | 10 | confidence interval is below one at all concentrations and effective levels | 0.87 (0.79, 0.96) | 0.67 (0.55, 0.80) | 0.52 (0.37, 0.67) | 0.65 (0.51, 0.78) | 0.45 (0.31, 0.58) | 0.31 (0.19, 0.44) | 0.78 (0.69, 0.86) | 0.60 (0.54, 0.67) | 0.47 (0.40, 0.54) | – |
| CC(C)c1nc(CN(C)C(=O)N[C@H](C(=O)N[C@@H](Cc2ccccc2)C[C@H](O)[C@H](Cc2ccccc2)NC(=O)OCc2cncs2)C(C)C)cs1 [Ritonavir, ritonavir] | 48 | additive relationship with Example 19 cannot be ruled out | 0.80 (0.67, 0.93) | 0.57 (0.41, 0.73) | 0.44 (0.23, 0.65) | 0.73 (0.59, 0.88) | 0.64 (0.48, 0.80) | 0.61 (0.38, 0.85) | 0.92 (0.72, 1.11) | 0.72 (0.50, 0.93) | 0.59 (0.32, 0.87) | – |
| CC(C)(C)NC(=O)[C@@H]1CN(Cc2cccnc2)CCN1C[C@@H](O)C[C@@H](Cc1ccccc1)C(=O)N[C@H]1c2ccccc2C[C@H]1O [Indinavir, indinavir] | 26 | additive relationship with Example 19 cannot be ruled out | 0.86 (0.80, 0.92) | 0.71 (0.62, 0.81) | 0.60 (0.46, 0.73) | 0.92 (0.84, 0.99) | 0.84 (0.76, 0.92) | 0.77 (0.66, 0.89) | 0.94 (0.87, 1.02) | 0.79 (0.71, 0.87) | 0.67 (0.57, 0.77) | – |
| Cc1ccnc2c1NC(=O)c1cccnc1N2C1CC1 [Nevirapine, nevirapine] | 95 | synergism at most effective concentrations and molar ratios | 0.72 (0.62, 0.82) | 0.69 (0.55, 0.83) | 0.66 (0.46, 0.87) | 0.76 (0.64, 0.87) | 0.81 (0.64, 0.97) | 0.87 (0.59, 1.15) | 0.73 (0.62, 0.83) | 0.68 (0.55, 0.81) | 0.64 (0.45, 0.84) | strong synergistic effects |
